In brackets after ≈: the same amount, converted by molar mass. Entries after “also recorded” stand apart in the source; their conditions may differ.
How the values were obtained:
Assay type in all cases: physicochemical
[1] = Solubility test of AST-3424 in different solvents at 25 °C
Method: A proper amount of AST-3424 (hereinafter referred to as active pharmaceutical ingredient or API) was taken and placed into a proper container, a solvent was gradually added thereto, the mixture was uniformly shaken, the process of the solution changing from turbidity (excessive oil drops of AST-3424 exist) to clarification (AST-3424 is completely dissolved) was observed, the volume of the solvent for clarifying the mixed solution of AST-3424 was recorded, and the solubility was calculated.
In addition, water was further used for the experiment.

[2] = Stability of AST-3424 solutions (about 90 mg/mL) in different solvents, high-temperature destruction 40 °C, 3 days
Method: The AST-3424 solutions (contents were about 90 mg/mL) dissolved in different solvents were subjected to high-temperature destruction (40 °C, 3 days). The purity was detected. The destructed solutions were compared with samples not subjected to the destruction (40 °C, 3 days). The stability of AST-3424 in different solvents was examined.
Purity was determined by using an HPLC method:
Mobile phase: • A: 10 mmol/L ammonium acetate solution obtained by dissolving ammonium acetate in a mixed solvent of 95% water and 5% acetonitrile by volume ratio; and • B: 8 mmol/L ammonium acetate solution obtained by dissolving ammonium acetate in a mixed solvent of 95% acetonitrile and 5% water by volume ratio; and
A gradient elution was performed.

[3] = Long-term stability study at −20±5 °C and 5±3 °C away from light (HDPE bottle, LDPE bag, aluminum foil bag); conditions: pure API, current limited stability data
Source text: (§1) The samples used for the stability study were inner-packaged in an HDPE bottle with a screw cap and outer-packaged in an LDPE bag with a pull button placed in a heat-sealing aluminum foil bag.
(§2) The water content (mass percentage), content, purity (chemical purity) and enantiomeric excess (e.e %) values were detected at 0, 1, 2, 3, 6, 9, 12, 18, 24, 36 and 42 months, respectively. The samples of batches 024101, 034101 and 044101 were used in the experiments.

[4] = Accelerated stability experiment at 25±2 °C and 60±5% RH away from light; conditions: 25 °C, after 2 months
Source text: as §1, §2

[5] = Observation of viscosity of AST-3424 (FIG. 3); conditions: neat AST-3424, FIG. 3
Source text: Therefore, it is inconvenient to transfer and sub-package it, and solvents are needed to reduce the viscosity thereof.

[6] = Choice of solvent during distillation in the preparation of AST-3424
Source text: In the preparation of the AST-3424, in order to remove the solvent, water, etc., used in the preparation and separation processes by distillation as much as possible, the applicant mixes the oily AST-3424 product separated and purified with various common solvents (ethyl acetate, ethanol, methanol, etc.) and performs distillation under reduced pressure after the mixture is heated at a lower temperature. […] Therefore, ethanol is ultimately used through initial confirmation.

[7] = Stability of AST-3424 solutions (about 90 mg/mL) in different solvents, high-temperature destruction 40 °C, 3 days; conditions: dissolved in propylene glycol, compared with other solvents
[8] = absolute ethanol, 40 °C, 3 days
[9] = propylene glycol, 40 °C, 3 days

- Degradation [4]: degraded rapidly
- Purity [4]: less than 98%
Compound: C[C@H](OP(=O)(N1CC1)N1CC1)c1ccc([N+](=O)[O-])c(Oc2cccc(C(=O)N(C)C)c2)c1 [AST-3424, (S)-1-(3-(3-N,N-dimethylaminocarbonyl)phenoxy-4-nitrophenyl)-1-ethyl-N,N′bis(ethylene)phosphoramidate]
- Phenomenon (solubility in words) ([1]; ethanol, table cell continues '(mutually soluble)'): good solubilities; also recorded: good solubility and stability; also recorded: Very soluble
- Phenomenon (solubility in words) ([1]; ethyl acetate, table cell continues '(mutually soluble)'): Very soluble
- solubility ([1]; organic solvent or mixture, ethanol): > 1000 mg/mL
- solubility ([1]; organic solvent or mixture, ethyl acetate): > 1000 mg/mL
- solubility ([1]; organic solvent or mixture, propylene glycol): > 100 mg/mL
- Phenomenon (solubility in words) ([1]; propylene glycol, table cell continues 'soluble'): good solubilities; also recorded: good solubility and stability; also recorded: Freely
- solubility ([1]; water): ~20 mg/mL (≈ 43.4 mM)
- Phenomenon (solubility in words) ([1]; water, table cell continues 'soluble'): sparingly soluble; also recorded: poor solubility and stability
- Chemical purity ([2]; 0 day (not subjected to destruction)): 99.3%
- Stability in solvent ([2]; absolute ethanol): stable; also recorded: good solubility and stability
- Chemical purity [2, 8]: 98.8%
- Content of AST-3424 [2, 8]: 89.5 mg/mL
- Stability in solvent ([2]; acetonitrile): stable
- Chemical purity ([2]; acetonitrile, 40 °C, 3 days): 99.3%
- Content of AST-3424 ([2]; acetonitrile, 40 °C, 3 days): 91.0 mg/mL
- Stability in solvent ([2]; ethyl acetate): stable
- Chemical purity ([2]; ethyl acetate, 40 °C, 3 days): 96.6%
- Content of AST-3424 ([2]; ethyl acetate, 40 °C, 3 days): 96.1 mg/mL
- Stability in solvent ([2]; propylene glycol): stable; also recorded: good solubility and stability
- Chemical purity [2, 9]: 96.8%
- Content of AST-3424 [2, 9]: 83.5 mg/mL
- Stability in solvent ([2]; water): poor solubility and stability
- Chemical purity ([2]; water, 40 °C, 3 days): 75.4%
- Content of AST-3424 ([2]; water, 40 °C, 3 days): 89.2 mg/mL
- Stability compared with AST-3424 ethanol solution [3]: better than that of the AST-3424 ethanol solution
- Physical state / viscosity [5]: viscous oily substance
- solubility ([6]; ethanol): almost infinitely dissolve
- solubility ([6]; ethyl acetate): not high enough
- solubility ([6]; methanol): good solubility
- Viscosity [7]: obviously higher viscosity; also recorded: high viscosity
